{"source": "paper PMC12967844", "about": "(Engineering Microbiology, 2025)", "target": "PtlI (pentalenene oxygenase) (Streptomyces avermitilis, UniProt Q82IY3)", "sequence (Q82IY3 whole entry)": "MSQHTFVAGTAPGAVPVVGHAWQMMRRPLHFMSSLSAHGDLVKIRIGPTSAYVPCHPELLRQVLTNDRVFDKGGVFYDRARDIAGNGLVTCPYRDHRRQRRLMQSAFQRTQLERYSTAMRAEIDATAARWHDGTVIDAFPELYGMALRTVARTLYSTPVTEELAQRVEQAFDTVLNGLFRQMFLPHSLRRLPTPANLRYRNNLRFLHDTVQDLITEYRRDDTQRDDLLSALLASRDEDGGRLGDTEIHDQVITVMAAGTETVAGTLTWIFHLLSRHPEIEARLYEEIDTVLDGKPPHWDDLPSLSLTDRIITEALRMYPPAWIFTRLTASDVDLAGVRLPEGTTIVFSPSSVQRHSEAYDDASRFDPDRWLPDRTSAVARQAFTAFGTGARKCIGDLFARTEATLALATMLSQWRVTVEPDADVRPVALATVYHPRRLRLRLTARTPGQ", "details": "E. coli co-expressing penA; substrate made in the cell; endogenous E. coli redox proteins", "data": [{"molecule": "CC1=C[C@@H]2CC(C)(C)C[C@@]23[C@H](C)CC[C@@H]13", "note": "[compound 3, pentalenene]", "values": [{"measurement": "GC-MS of culture extracts, heterologous expression in E. coli", "value": "PtlI can catalyze a three-step oxidation in the cell"}]}]}
